Publication PMC6008465 (British Journal of Cancer, 2018)

Key:
[1] = preclinical; cited from earlier work
IL-8 = system: IL-8; parameters: IC50 for inhibition of spontaneous secretion of IL-8: unit not given here; details: quoted in discussion, no reference given, cited from earlier work
[2] = system: patients with advanced solid tumours; assay: Phase 1 Part A (dose escalation): safety, DLT, MTD; type: in vivo, human
Procedure: The primary objectives of this phase 1 study were to evaluate the safety, tolerability, and MTD of once-weekly (Schedule I) and twice-weekly (Schedule II) dosing. Secondary objectives included evaluation of the PK profile of E6201. […] Toxicity was managed by dose interruption, reduction, and/or discontinuation. Only Cycle 1 adverse events (AEs) were evaluable as DLTs. Based on AEs reported at 480 mg/m^2 and 400 mg/m^2, the protocol was amended to include up to 6 additional toxicity-evaluable patients at 320 mg/m^2, to confirm this as the MTD. All ongoing patients could continue at 320 mg/m^2, regardless of initial starting dose.
Safety was assessed by monitoring AEs, serious AEs (SAEs), laboratory parameters, vital signs, 12-lead electrocardiograms (ECGs), Eastern Cooperative Oncology Group performance status, and symptom-directed physical and neurologic examination findings. AEs were graded by investigators based on the National Cancer Institute Common Terminology Criteria for Adverse Events, version 3.[16]

SMILES: CCNc1cc(O)c2c(c1)/C=C/C[C@H](O)[C@H](O)C(=O)/C=C\[C@@H](C)[C@H](C)OC2=O [E6201, (3S,4R,5Z,8S,9S,11E)-14-(ethylamino)-8,9,16-trihydroxy-3,4-dimethyl-3,4,9,19-tetrahydro-1H-2-benzoxacyclotetradecine-1,7 (8H)-dione]
- t1/2 of E6201 [1]: 3 to 6 h
- IC50 for inhibition of spontaneous secretion of IL-8 (IL-8): 8.19
- IC50 (IL-8; read-out: IC50 for inhibition of spontaneous secretion of IL-8): 21.8 nM
- Patients who discontinued treatment due to SAEs ([2]; Part A): Two
- Patients with grade 1/2 eye disorders ([2]; Part A (160 and 320 mg/m^2 groups)): two
- Nausea TEAE, patients ([2]; Part A overall, 9 patients): 36%
- Abdominal pain TEAE incidence, All grades ([2]; Part A, 20 mg/m^2 (n=4)): 1 (25.0) n (%)
- Abdominal pain TEAE incidence, G≥3 ([2]; Part A, 20 mg/m^2 (n=4)): 0 n (%)
- Constipation TEAE incidence, All grades ([2]; Part A, 20 mg/m^2 (n=4)): 1 (25.0) n (%)
- Constipation TEAE incidence, G≥3 ([2]; Part A, 20 mg/m^2 (n=4)): 0 n (%)
- Decreased appetite TEAE incidence, All grades ([2]; Part A, 20 mg/m^2 (n=4)): 1 (25.0) n (%)
- Decreased appetite TEAE incidence, G≥3 ([2]; Part A, 20 mg/m^2 (n=4)): 0 n (%)
- Fatigue TEAE incidence, All grades ([2]; Part A, 20 mg/m^2 (n=4)): 1 (25.0) n (%)
- Fatigue TEAE incidence, G≥3 ([2]; Part A, 20 mg/m^2 (n=4)): 0 n (%)
- Hypokalemia TEAE incidence, All grades ([2]; Part A, 20 mg/m^2 (n=4)): 1 (25.0) n (%)
- Hypokalemia TEAE incidence, G≥3 ([2]; Part A, 20 mg/m^2 (n=4)): 0 n (%)
- Nausea TEAE incidence, All grades ([2]; Part A, 20 mg/m^2 (n=4)): 1 (25.0) n (%)
- Nausea TEAE incidence, G≥3 ([2]; Part A, 20 mg/m^2 (n=4)): 0 n (%)
- Peripheral edema TEAE incidence, All grades ([2]; Part A, 20 mg/m^2 (n=4)): 1 (25.0) n (%)
- Peripheral edema TEAE incidence, G≥3 ([2]; Part A, 20 mg/m^2 (n=4)): 0 n (%)
- Vomiting TEAE incidence, All grades ([2]; Part A, 20 mg/m^2 (n=4)): 0 n (%)
- Vomiting TEAE incidence, G≥3 ([2]; Part A, 20 mg/m^2 (n=4)): 0 n (%)
- Abdominal pain TEAE incidence, All grades ([2]; Part A, 40 mg/m^2 (n=3)): 1 (33.3) n (%)
- Abdominal pain TEAE incidence, G≥3 ([2]; Part A, 40 mg/m^2 (n=3)): 0 n (%)
- Constipation TEAE incidence, All grades ([2]; Part A, 40 mg/m^2 (n=3)): 0 n (%)
- Constipation TEAE incidence, G≥3 ([2]; Part A, 40 mg/m^2 (n=3)): 0 n (%)
- Decreased appetite TEAE incidence, All grades ([2]; Part A, 40 mg/m^2 (n=3)): 0 n (%)
- Decreased appetite TEAE incidence, G≥3 ([2]; Part A, 40 mg/m^2 (n=3)): 0 n (%)
- Fatigue TEAE incidence, All grades ([2]; Part A, 40 mg/m^2 (n=3)): 0 n (%)
- Fatigue TEAE incidence, G≥3 ([2]; Part A, 40 mg/m^2 (n=3)): 0 n (%)
- Hypokalemia TEAE incidence, All grades ([2]; Part A, 40 mg/m^2 (n=3)): 1 (33.3) n (%)
- Hypokalemia TEAE incidence, G≥3 ([2]; Part A, 40 mg/m^2 (n=3)): 0 n (%)
- Nausea TEAE incidence, All grades ([2]; Part A, 40 mg/m^2 (n=3)): 1 (33.3) n (%)
- Nausea TEAE incidence, G≥3 ([2]; Part A, 40 mg/m^2 (n=3)): 0 n (%)
- Peripheral edema TEAE incidence, All grades ([2]; Part A, 40 mg/m^2 (n=3)): 0 n (%)
- Peripheral edema TEAE incidence, G≥3 ([2]; Part A, 40 mg/m^2 (n=3)): 0 n (%)
- Vomiting TEAE incidence, All grades ([2]; Part A, 40 mg/m^2 (n=3)): 1 (33.3) n (%)
- Vomiting TEAE incidence, G≥3 ([2]; Part A, 40 mg/m^2 (n=3)): 0 n (%)
- Abdominal pain TEAE incidence, All grades ([2]; Part A, 80 mg/m^2 (n=3)): 0 n (%)
- Abdominal pain TEAE incidence, G≥3 ([2]; Part A, 80 mg/m^2 (n=3)): 0 n (%)
- Constipation TEAE incidence, All grades ([2]; Part A, 80 mg/m^2 (n=3)): 1 (33.3) n (%)
- Constipation TEAE incidence, G≥3 ([2]; Part A, 80 mg/m^2 (n=3)): 0 n (%)
- Decreased appetite TEAE incidence, All grades ([2]; Part A, 80 mg/m^2 (n=3)): 0 n (%)
- Decreased appetite TEAE incidence, G≥3 ([2]; Part A, 80 mg/m^2 (n=3)): 0 n (%)
- Fatigue TEAE incidence, All grades ([2]; Part A, 80 mg/m^2 (n=3)): 0 n (%)
- Fatigue TEAE incidence, G≥3 ([2]; Part A, 80 mg/m^2 (n=3)): 0 n (%)
- Hypokalemia TEAE incidence, All grades ([2]; Part A, 80 mg/m^2 (n=3)): 0 n (%)
- Hypokalemia TEAE incidence, G≥3 ([2]; Part A, 80 mg/m^2 (n=3)): 0 n (%)
- Nausea TEAE incidence, All grades ([2]; Part A, 80 mg/m^2 (n=3)): 0 n (%)
- Nausea TEAE incidence, G≥3 ([2]; Part A, 80 mg/m^2 (n=3)): 0 n (%)
- Peripheral edema TEAE incidence, All grades ([2]; Part A, 80 mg/m^2 (n=3)): 1 (33.3) n (%)
- Peripheral edema TEAE incidence, G≥3 ([2]; Part A, 80 mg/m^2 (n=3)): 0 n (%)
- Vomiting TEAE incidence, All grades ([2]; Part A, 80 mg/m^2 (n=3)): 0 n (%)
- Vomiting TEAE incidence, G≥3 ([2]; Part A, 80 mg/m^2 (n=3)): 0 n (%)
- Abdominal pain TEAE incidence, All grades ([2]; Part A, 160 mg/m^2 (n=3)): 1 (33.3) n (%)
- Abdominal pain TEAE incidence, G≥3 ([2]; Part A, 160 mg/m^2 (n=3)): 1 (33.3) n (%)
- Constipation TEAE incidence, All grades ([2]; Part A, 160 mg/m^2 (n=3)): 1 (33.3) n (%)
- Constipation TEAE incidence, G≥3 ([2]; Part A, 160 mg/m^2 (n=3)): 0 n (%)
- Decreased appetite TEAE incidence, All grades ([2]; Part A, 160 mg/m^2 (n=3)): 1 (33.3) n (%)
- Decreased appetite TEAE incidence, G≥3 ([2]; Part A, 160 mg/m^2 (n=3)): 0 n (%)
- Fatigue TEAE incidence, All grades ([2]; Part A, 160 mg/m^2 (n=3)): 1 (33.3) n (%)
- Fatigue TEAE incidence, G≥3 ([2]; Part A, 160 mg/m^2 (n=3)): 0 n (%)
- Hypokalemia TEAE incidence, All grades ([2]; Part A, 160 mg/m^2 (n=3)): 0 n (%)
- Hypokalemia TEAE incidence, G≥3 ([2]; Part A, 160 mg/m^2 (n=3)): 0 n (%)
- Nausea TEAE incidence, All grades ([2]; Part A, 160 mg/m^2 (n=3)): 1 (33.3) n (%)
- Nausea TEAE incidence, G≥3 ([2]; Part A, 160 mg/m^2 (n=3)): 0 n (%)
- Peripheral edema TEAE incidence, All grades ([2]; Part A, 160 mg/m^2 (n=3)): 1 (33.3) n (%)
- Peripheral edema TEAE incidence, G≥3 ([2]; Part A, 160 mg/m^2 (n=3)): 0 n (%)
- Vomiting TEAE incidence, All grades ([2]; Part A, 160 mg/m^2 (n=3)): 1 (33.3) n (%)
- Vomiting TEAE incidence, G≥3 ([2]; Part A, 160 mg/m^2 (n=3)): 0 n (%)
- Abdominal pain TEAE incidence, All grades ([2]; Part A, 320 mg/m^2 (n=7)): 2 (28.6) n (%)
- Abdominal pain TEAE incidence, G≥3 ([2]; Part A, 320 mg/m^2 (n=7)): 1 (14.3) n (%)
- Constipation TEAE incidence, All grades ([2]; Part A, 320 mg/m^2 (n=7)): 2 (28.6) n (%)
- Constipation TEAE incidence, G≥3 ([2]; Part A, 320 mg/m^2 (n=7)): 0 n (%)
- Decreased appetite TEAE incidence, All grades ([2]; Part A, 320 mg/m^2 (n=7)): 2 (28.6) n (%)
- Decreased appetite TEAE incidence, G≥3 ([2]; Part A, 320 mg/m^2 (n=7)): 1 (14.3) n (%)
